Data reported in PMC8536124 (International Journal of Molecular Sciences, 2021).

Assays:
MOLT-4 = assay: NCI-60 screening (SRB); assay type: cell-based, human; conditions: five-dose
Breast cancer = assay: NCI-60 screening (SRB), subpanel; assay type: cell-based
Outline: (§1)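 48 h incubation with compound; SRB protein dye end point; % growth vs untreated ctrl. GI50, TGI, LC50 per line; MG_MID = subpanel mean, insensitive lines set to top tested conc.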

Colon Cancer = assay: NCI-60 screening (SRB), subpanel; assay type: cell-based
Outline: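 SRB read-out after 48 h compound exposure, percent growth relative to untreated cells; values 0–100 indicate cytostasis, negative values cytotoxicity. Mean graph midpoints average GI50/TGI/LC50 over the subpanel's lines.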

Leukemia = assay: NCI-60 screening (SRB), subpanel; assay type: cell-based
Outline: as §1

Melanoma = assay: NCI-60 screening (SRB), subpanel; assay type: cell-based
Outline: as §1

NSC lung cancer = assay: NCI-60 screening (SRB), subpanel; assay type: cell-based
Outline: as §1

Ovarian cancer = assay: NCI-60 screening (SRB), subpanel; assay type: cell-based
Outline: as §1

Prostate cancer = assay: NCI-60 screening (SRB), subpanel; assay type: cell-based
Outline: as §1

Renal Cancer = assay: NCI-60 screening (SRB), subpanel; assay type: cell-based
Outline: as §1

HOP-62 = assay: NCI-60 screening (SRB); assay type: cell-based, human; conditions: five-dose
NCI-H23 = assay: NCI-60 screening (SRB); assay type: cell-based, human; conditions: five-dose
NCI-H322M = assay: NCI-60 screening (SRB); assay type: cell-based, human; conditions: five-dose
HCC-2998 = assay: NCI-60 screening (SRB); assay type: cell-based, human; conditions: five-dose
HCT-116 = assay: NCI-60 screening (SRB); assay type: cell-based, human; conditions: five-dose
LOX IMVI = assay: NCI-60 screening (SRB); assay type: cell-based, human; conditions: LOX IMVI, five-dose
MALME-3M = assay: NCI-60 screening (SRB); assay type: cell-based, human; conditions: MALME-3M, five-dose
MDA-MB-435 = assay: NCI-60 screening (SRB); assay type: cell-based, human; conditions: five-dose
SK-MEL-5 = assay: NCI-60 screening (SRB); assay type: cell-based, human; conditions: SK-MEL-5, five-dose
UACC-257 = assay: NCI-60 screening (SRB); assay type: cell-based, human; conditions: five-dose
OVCAR-3 = assay: NCI-60 screening (SRB); assay type: cell-based, human; conditions: five-dose
OVCAR-8 = assay: NCI-60 screening (SRB); assay type: cell-based, human; conditions: five-dose
786-0 = assay: NCI-60 screening (SRB); assay type: cell-based, human; conditions: five-dose
CAKI-1 = assay: NCI-60 screening (SRB); assay type: cell-based, human; conditions: CAKI-1, five-dose
TK-10 = assay: NCI-60 screening (SRB); assay type: cell-based, human; conditions: five-dose
DU-145 = assay: NCI-60 screening (SRB); assay type: cell-based, human; conditions: five-dose
[1] = Homo sapiens, read-out: LC50 (the source's name)

CCN1CCN(C(=O)[C@]23CC[C@@H](C)[C@H](C)[C@H]2C2=CC[C@@H]4[C@@]5(C)C/C(=C/c6cccnc6)C(=O)C(C)(C)[C@@H]5CC[C@@]4(C)[C@]2(C)CC3)CC1 [Compound 9, N-(2-{3-Pyridinylidene}-3-oxoursan-12-en-28-oyl)-ethylpiperazine]
GI50 (MOLT-4; Homo sapiens): 2.63 µM
CC50 (MOLT-4; [1]): > 100 µM
TGI (MOLT-4): 7.44 µM
TGI MG_MID (Breast cancer; Breast cancer subpanel, five-dose): 5.37 µM
SI (TGI) (Breast cancer; Breast cancer, MG_MID60/subpanel MG_MID): 0.98
GI50 (Breast cancer; Homo sapiens, Breast cancer subpanel, five-dose, read-out: GI50 MG_MID): 1.91 µM
CC50 (Breast cancer; Homo sapiens, Breast cancer subpanel, five-dose, read-out: LC50 MG_MID): 36.9 µM
TGI MG_MID (Colon Cancer; Colon Cancer subpanel, five-dose): 4.00 µM
SI (TGI) (Colon Cancer; Colon Cancer, MG_MID60/subpanel MG_MID): 1.32
GI50 (Colon Cancer; Homo sapiens, Colon Cancer subpanel, five-dose, read-out: GI50 MG_MID): 1.81 µM
CC50 (Colon Cancer; Homo sapiens, Colon Cancer subpanel, five-dose, read-out: LC50 MG_MID): 33.7 µM
CC50 (Leukemia; Homo sapiens, Leukemia subpanel, five-dose, read-out: LC50 MG_MID): > 100 µM
TGI MG_MID (Leukemia; Leukemia subpanel, five-dose): 7.09 µM
SI (TGI) (Leukemia; Leukemia, MG_MID60/subpanel MG_MID): 0.75
GI50 (Melanoma; Homo sapiens, Melanoma subpanel, five-dose, read-out: GI50 MG_MID): 1.56 µM
CC50 (Melanoma; Homo sapiens, Melanoma subpanel, five-dose, read-out: LC50 MG_MID): 25.1 µM
TGI MG_MID (Melanoma; Melanoma subpanel, five-dose): 3.66 µM
SI (TGI) (Melanoma; Melanoma, MG_MID60/subpanel MG_MID): 1.45
GI50 (NSC lung cancer; Homo sapiens, NSC lung cancer subpanel, five-dose, read-out: GI50 MG_MID): 2.12 µM
CC50 (NSC lung cancer; Homo sapiens, NSC lung cancer subpanel, five-dose, read-out: LC50 MG_MID): 47.1 µM
TGI MG_MID (NSC lung cancer; NSC lung cancer subpanel, five-dose): 6.81 µM
SI (TGI) (NSC lung cancer; NSCL cancer, MG_MID60/subpanel MG_MID): 0.78
GI50 (Ovarian cancer; Homo sapiens, Ovarian cancer subpanel, five-dose, read-out: GI50 MG_MID): 2.04 µM
CC50 (Ovarian cancer; Homo sapiens, Ovarian cancer subpanel, five-dose, read-out: LC50 MG_MID): 36.2 µM
SI (TGI) (Ovarian cancer; Ovarian Cancer, MG_MID60/subpanel MG_MID): 1.02
TGI MG_MID (Ovarian cancer; Ovarian cancer subpanel, five-dose): 5.16 µM
GI50 (Prostate cancer; Homo sapiens, Prostate cancer subpanel, five-dose, read-out: GI50 MG_MID): 1.79 µM
CC50 (Prostate cancer; Homo sapiens, Prostate cancer subpanel, five-dose, read-out: LC50 MG_MID): 9.23 µM
SI (TGI) (Prostate cancer; Prostate cancer, MG_MID60/subpanel MG_MID): 0.89
GI50 (Renal Cancer; Homo sapiens, Renal cancer subpanel, five-dose, read-out: GI50 MG_MID): 1.97 µM
LC50 (50% net cell kill) (Renal Cancer; Homo sapiens, Renal cancer subpanel, five-dose, read-out: LC50 MG_MID): 21.3 µM
SI (TGI) (Renal Cancer; Renal Cancer, MG_MID60/subpanel MG_MID): 0.95
TGI MG_MID (Renal Cancer; Renal cancer subpanel, five-dose): 5.57 µM
GI50 (HOP-62; Homo sapiens): 2.43 µM
LC50 (HOP-62; Homo sapiens): > 100 µM
TGI (HOP-62): 5.86 µM
GI50 (NCI-H23; Homo sapiens): 2.13 µM
CC50 (NCI-H23; [1]): 31.8 µM
TGI (NCI-H23): 5.91 µM
GI50 (NCI-H322M; Homo sapiens): 2.28 µM
CC50 (NCI-H322M; [1]): 28.8 µM
TGI (NCI-H322M): 8.27 µM
GI50 (HCC-2998; Homo sapiens): 1.55 µM
CC50 (HCC-2998; [1]): 5.79 µM
TGI (HCC-2998): 3.00 µM
GI50 (HCT-116; Homo sapiens): 1.69 µM
CC50 (HCT-116; [1]): 7.43 µM
TGI (HCT-116): 3.55 µM
GI50 (LOX IMVI; Homo sapiens): 1.58 µM
CC50 (LOX IMVI; [1]): 5.91 µM
TGI (LOX IMVI): 3.06 µM
GI50 (MALME-3M; Homo sapiens): 1.4 µM
CC50 (MALME-3M; [1]): 5.39 µM
TGI (MALME-3M): 2.75 µM
GI50 (MDA-MB-435; Homo sapiens): 1.7 µM
CC50 (MDA-MB-435; [1]): 7.18 µM
TGI (MDA-MB-435): 3.49 µM
GI50 (SK-MEL-5; Homo sapiens): 1.75 µM
CC50 (SK-MEL-5; [1]): 5.63 µM
TGI (SK-MEL-5): 3.14 µM
GI50 (UACC-257; Homo sapiens): 2.21 µM
CC50 (UACC-257; [1]): > 100 µM
TGI (UACC-257): 5.95 µM
GI50 (OVCAR-3; Homo sapiens): 1.65 µM
CC50 (OVCAR-3; [1]): 6.17 µM
TGI (OVCAR-3): 3.19 µM
GI50 (OVCAR-8; Homo sapiens): 2.32 µM
CC50 (OVCAR-8; [1]): > 100 µM
TGI (OVCAR-8): 6.29 µM
GI50 (786-0; Homo sapiens): 1.98 µM
TGI (786-0): 4.37 µM
TGI (CAKI-1): 11.8 µM
GI50 (CAKI-1; Homo sapiens): 2.12 µM
CC50 (CAKI-1; [1]): 41.9 µM
GI50 (TK-10; Homo sapiens): 2.87 µM
CC50 (TK-10; [1]): 59.3 µM
TGI (TK-10): 9.40 µM
GI50 (DU-145; Homo sapiens): 2.08 µM
CC50 (DU-145; [1]): 8.53 µM
TGI (DU-145): 4.21 µM
